# Test results as given in paper PMC5218480 (PLoS ONE, 2017).
# System: MV-4-11 cells
# Experiment: Gene expression microarray analysis (Affymetrix PrimeView) and GSEA
# Format: cell-based, human
# Set-up: RFU PODN (11730768_x_at) / Fold change /veh PODN (11730768_x_at) / RFU LINC00158 (11744669_a_at) / Fold change /veh LINC00158 (11744669_a_at) / RFU DUSP10 (11751237_a_at) / Fold change /veh DUSP10 (11751237_a_at) / RFU ID3 (11757404_x_at) / Fold change /veh ID3 (11757404_x_at) / RFU PLEKHG5 (11737974_s_at) / Fold change /veh PLEKHG5 (11737974_s_at) / RFU LRRC4B (11730491_at) / Fold change /veh LRRC4B (11730491_at) / RFU GIMAP4 (11747438_a_at) / Fold change /veh GIMAP4 (11747438_a_at) / RFU KRT8 (11758183_x_at) / Fold change /veh KRT8 (11758183_x_at) / RFU CNN1 (11734310_a_at) / Fold change /veh CNN1 (11734310_a_at) / RFU VPS37D (11726825_at) / Fold change /veh VPS37D (11726825_at) / RFU C10orf10 (11716522_x_at) / Fold change /veh C10orf10 (11716522_x_at) / RFU KIR2DL2 /// KIR2DL4 /// KIR2DL5A /// KIR2DL5B /// KIR2DS1 /// KIR2DS2 /// KIR2DS3 /// KIR2DS4 /// KIR3DL3 /// KIR3DL3 /// KIR3DS1 (11738374_at) / Fold change /veh KIR2DL2 /// KIR2DL4 /// KIR2DL5A /// KIR2DL5B /// KIR2DS1 /// KIR2DS2 /// KIR2DS3 /// KIR2DS4 /// KIR3DL3 /// KIR3DL3 /// KIR3DS1 (11738374_at) / RFU C1QL1 (11718748_at) / Fold change /veh C1QL1 (11718748_at) / RFU TMPRSS4 (11747572_a_at) / Fold change /veh TMPRSS4 (11747572_a_at) / RFU HAMP (11756126_x_at) / Fold change /veh HAMP (11756126_x_at) / RFU RNFT2 (11725882_a_at) / Fold change /veh RNFT2 (11725882_a_at) / RFU NR4A2 (11747474_a_at) / Fold change /veh NR4A2 (11747474_a_at) / RFU ABCC12 (11746883_a_at) / Fold change /veh ABCC12 (11746883_a_at) / RFU TMEM136 (11760407_x_at) / Fold change /veh TMEM136 (11760407_x_at) / RFU CLDN22 /// WWC2 (11732394_at) / Fold change /veh CLDN22 /// WWC2 (11732394_at) / RFU HLA-DPB1 (11760878_x_at) / Fold change /veh HLA-DPB1 (11760878_x_at) / RFU SPINT1 (11716480_a_at) / Fold change /veh SPINT1 (11716480_a_at) / RFU GAP43 (11754022_s_at) / Fold change /veh GAP43 (11754022_s_at) / RFU A4GNT (11735810_at) / Fold change /veh A4GNT (11735810_at) / RFU PRB3 (11715151_x_at) / Fold change /veh PRB3 (11715151_x_at) / RFU TUBB4B (11761932_at) / Fold change /veh TUBB4B (11761932_at) / RFU CAPN14 (11732068_a_at) / Fold change /veh CAPN14 (11732068_a_at) / RFU TMCC2 (11721928_a_at) / Fold change /veh TMCC2 (11721928_a_at) / RFU IRGQ (11745062_a_at) / Fold change /veh IRGQ (11745062_a_at) / RFU FAM174B (11720279_a_at) / Fold change /veh FAM174B (11720279_a_at) / RFU TMPRSS4 (11748680_a_at) / Fold change /veh TMPRSS4 (11748680_a_at) / RFU FAM212B (11763350_a_at) / Fold change /veh FAM212B (11763350_a_at) / RFU PLEKHG5 (11743358_a_at) / Fold change /veh PLEKHG5 (11743358_a_at) / RFU ZSCAN30 (11745921_a_at) / Fold change /veh ZSCAN30 (11745921_a_at) / RFU CMKLR1 (11741424_a_at) / Fold change /veh CMKLR1 (11741424_a_at) / RFU LOC101060620 /// MAPK8IP1 (11723275_at) / Fold change /veh LOC101060620 /// MAPK8IP1 (11723275_at) / RFU SPTSSB (11747773_x_at) / Fold change /veh SPTSSB (11747773_x_at) / RFU PRSS12 (11739890_at) / Fold change /veh PRSS12 (11739890_at) / RFU BIN1 (11741810_x_at) / Fold change /veh BIN1 (11741810_x_at) / RFU WNT11 (11732464_a_at) / Fold change /veh WNT11 (11732464_a_at) / RFU C10orf10 (11716521_a_at) / Fold change /veh C10orf10 (11716521_a_at) / RFU C5orf56 (11738089_at) / Fold change /veh C5orf56 (11738089_at) / RFU CYB561 (11721691_x_at) / Fold change /veh CYB561 (11721691_x_at) / RFU ANKRD19P (11752326_a_at) / Fold change /veh ANKRD19P (11752326_a_at) / RFU OR2T12 /// OR2T33 /// OR2T8 (11738714_s_at) / Fold change /veh OR2T12 /// OR2T33 /// OR2T8 (11738714_s_at) / RFU VCAN (11748164_a_at) / Fold change /veh VCAN (11748164_a_at) / RFU JSRP1 (11732532_at) / Fold change /veh JSRP1 (11732532_at) / RFU KRTAP10-11 (11738290_x_at) / Fold change /veh KRTAP10-11 (11738290_x_at) / RFU MYO3A (11730013_a_at) / Fold change /veh MYO3A (11730013_a_at) / RFU EBF3 (11725865_a_at) / Fold change /veh EBF3 (11725865_a_at) / RFU CAMK2N1 (11719241_x_at) / Fold change /veh CAMK2N1 (11719241_x_at) / RFU C5orf56 (11738088_a_at) / Fold change /veh C5orf56 (11738088_a_at) / RFU OLFML3 (11715873_a_at) / Fold change /veh OLFML3 (11715873_a_at) / RFU LOC100653217 /// NTM (11731650_a_at) / Fold change /veh LOC100653217 /// NTM (11731650_a_at) / RFU MAPK11 (11762145_a_at) / Fold change /veh MAPK11 (11762145_a_at) / RFU FIZ1 (11724087_x_at) / Fold change /veh FIZ1 (11724087_x_at) / RFU OASL (11726364_x_at) / Fold change /veh OASL (11726364_x_at) / RFU SOX15 (11748057_x_at) / Fold change /veh SOX15 (11748057_x_at) / RFU CD79A (11719716_a_at) / Fold change /veh CD79A (11719716_a_at) / RFU HIST1H1D (11736915_at) / Fold change /veh HIST1H1D (11736915_at) / RFU CASKIN2 (11723855_a_at) / Fold change /veh CASKIN2 (11723855_a_at) / RFU LOC730098 (11760151_x_at) / Fold change /veh LOC730098 (11760151_x_at) / RFU OR4N2 (11742367_at) / Fold change /veh OR4N2 (11742367_at) / RFU PRRT2 (11749266_a_at) / Fold change /veh PRRT2 (11749266_a_at) / RFU SNX32 (11753110_a_at) / Fold change /veh SNX32 (11753110_a_at) / RFU CDHR5 (11726645_a_at) / Fold change /veh CDHR5 (11726645_a_at) / RFU RCAN1 (11760418_a_at) / Fold change /veh RCAN1 (11760418_a_at) / RFU FAM167A (11723789_a_at) / Fold change /veh FAM167A (11723789_a_at) / RFU FAM26E (11764081_at) / Fold change /veh FAM26E (11764081_at) / RFU ISYNA1 (11749810_s_at) / Fold change /veh ISYNA1 (11749810_s_at) / RFU ACY1 (11761880_at) / Fold change /veh ACY1 (11761880_at) / RFU 11764098_at / Fold change /veh 11764098_at / RFU SAMD14 (11745864_x_at) / Fold change /veh SAMD14 (11745864_x_at) / RFU NPB (11741838_a_at) / Fold change /veh NPB (11741838_a_at) / RFU TMPRSS6 (11731388_a_at) / Fold change /veh TMPRSS6 (11731388_a_at) / RFU KRTAP10-2 (11738614_at) / Fold change /veh KRTAP10-2 (11738614_at) / RFU ARHGAP8 /// PRR5-ARHGAP8 (11727945_x_at) / Fold change /veh ARHGAP8 /// PRR5-ARHGAP8 (11727945_x_at) / RFU KRTAP5-7 /// NADSYN1 (11734609_at) / Fold change /veh KRTAP5-7 /// NADSYN1 (11734609_at) / RFU RASL12 (11751679_a_at) / Fold change /veh RASL12 (11751679_a_at) / RFU CDKN2B (11736163_a_at) / Fold change /veh CDKN2B (11736163_a_at) / RFU PRF1 (11729649_at) / Fold change /veh PRF1 (11729649_at) / RFU, ZNF638 /// ZNF638-IT1 / Fold change vs veh, ZNF638 /// ZNF638-IT1 / RFU, PANK3 / Fold change vs veh, PANK3 / RFU, SH3YL1 / Fold change vs veh, SH3YL1 / RFU, ZEB2 / Fold change vs veh, ZEB2 / RFU, NRIP1 / Fold change vs veh, NRIP1 / RFU, PTTG1IP / Fold change vs veh, PTTG1IP / RFU, CAPN2 / Fold change vs veh, CAPN2 / RFU, MED14 / Fold change vs veh, MED14 / RFU, SNORA58 / Fold change vs veh, SNORA58 / RFU, C1orf63 / Fold change vs veh, C1orf63 / RFU, LRRFIP1 / Fold change vs veh, LRRFIP1 / RFU, NDUFAF7 / Fold change vs veh, NDUFAF7 / RFU, SLC12A2 / Fold change vs veh, SLC12A2 / RFU, IBTK / Fold change vs veh, IBTK / RFU, ESF1 / Fold change vs veh, ESF1 / Fold change vs veh, TMEM50B / RFU, TAOK1 / Fold change vs veh, TAOK1 / RFU, ACBD3 / Fold change vs veh, ACBD3 / RFU, TMA16 / Fold change vs veh, TMA16 / RFU, RWDD3 / Fold change vs veh, RWDD3 / RFU, BCAT1 / Fold change vs veh, BCAT1 / RFU, EDEM3 / Fold change vs veh, EDEM3 / RFU, TMEM33 / Fold change vs veh, TMEM33 / RFU, WDR75 / Fold change vs veh, WDR75 / RFU, AHCTF1 / Fold change vs veh, AHCTF1 / RFU, TFRC / Fold change vs veh, TFRC / RFU, ZDHHC17 / Fold change vs veh, ZDHHC17 / RFU, NOM1 / Fold change vs veh, NOM1 / RFU, ARL8B / Fold change vs veh, ARL8B / RFU, ZBTB11 / Fold change vs veh, ZBTB11 / RFU, TAMM41 / Fold change vs veh, TAMM41 / RFU, KIAA1704 /// LOC100996395 / Fold change vs veh, KIAA1704 /// LOC100996395 / RFU, ING1 / Fold change vs veh, ING1 / RFU, TRMT61B / Fold change vs veh, TRMT61B / RFU, FUBP3 / Fold change vs veh, FUBP3 / RFU, TP53 / Fold change vs veh, TP53 / RFU, TNKS2 / Fold change vs veh, TNKS2 / RFU, ZFP14 / Fold change vs veh, ZFP14 / RFU, ACTR2 / Fold change vs veh, ACTR2 / RFU, PPP3R1 / Fold change vs veh, PPP3R1 / RFU, PIK3R1 / Fold change vs veh, PIK3R1 / RFU, HNRNPA1 / Fold change vs veh, HNRNPA1 / RFU, RNF170 / Fold change vs veh, RNF170 / RFU, ZNF28 / Fold change vs veh, ZNF28 / RFU, RNGTT / Fold change vs veh, RNGTT / RFU, OGT / Fold change vs veh, OGT / RFU, BRD1 / Fold change vs veh, BRD1 / RFU, MARS / Fold change vs veh, MARS / RFU, ZNF655 / Fold change vs veh, ZNF655 / RFU, FAHD1 / Fold change vs veh, FAHD1 / RFU, BDP1 / Fold change vs veh, BDP1 / RFU, LRRCC1 / Fold change vs veh, LRRCC1 / RFU, ARID1A / Fold change vs veh, ARID1A / RFU, ZNF146 / Fold change vs veh, ZNF146 / RFU, ZNF330 / Fold change vs veh, ZNF330 / RFU, GPN3 / Fold change vs veh, GPN3 / RFU, C9orf123 / Fold change vs veh, C9orf123 / RFU, N4BP2L2 / Fold change vs veh, N4BP2L2 / RFU, ARFIP1 / Fold change vs veh, ARFIP1 / RFU, FAM179B / Fold change vs veh, FAM179B / RFU, BCL10 / Fold change vs veh, BCL10 / RFU, UHRF1BP1L / Fold change vs veh, UHRF1BP1L / RFU, BET1 / Fold change vs veh, BET1 / RFU, CNOT2 / Fold change vs veh, CNOT2 / RFU, ZNF268 / Fold change vs veh, ZNF268 / Fold change vs veh, ZNF507 / RFU, DGCR2 / Fold change vs veh, DGCR2 / RFU, WDSUB1 / Fold change vs veh, WDSUB1 / Fold change vs veh, HSP90B1 /// MIR3652 / RFU, ADSS / Fold change vs veh, ADSS / RFU, GK / Fold change vs veh, GK / RFU, ZNF148 / Fold change vs veh, ZNF148 / RFU, TAF9 / Fold change vs veh, TAF9 / RFU, SLC1A5 / Fold change vs veh, SLC1A5 / RFU, SLMO2 / Fold change vs veh, SLMO2 / RFU, ABCC4 / Fold change vs veh, ABCC4 / RFU, LOC101060439 /// RAP1B / Fold change vs veh, LOC101060439 /// RAP1B / RFU, RFX7 / Fold change vs veh, RFX7 / RFU, GTPBP10 / Fold change vs veh, GTPBP10 / RFU, CNEP1R1 / Fold change vs veh, CNEP1R1 / RFU, BIVM-ERCC5 /// ERCC5 / Fold change vs veh, BIVM-ERCC5 /// ERCC5 / RFU, ILF3 / Fold change vs veh, ILF3 / RFU 11762660_at / Fold change /veh 11762660_at / RFU VCAN (11757783_s_at) / Fold change /veh VCAN (11757783_s_at) / RFU DDX43 (11728927_at) / Fold change /veh DDX43 (11728927_at) / RFU KRT8 (11758188_x_at) / Fold change /veh KRT8 (11758188_x_at) / RFU NKD1 (11759106_at) / Fold change /veh NKD1 (11759106_at) / RFU SRD5A1 (11742802_a_at) / Fold change /veh SRD5A1 (11742802_a_at) / RFU TPSAB1 /// TPSB2 (11721975_s_at) / Fold change /veh TPSAB1 /// TPSB2 (11721975_s_at) / RFU GSTM3 (11746129_a_at) / Fold change /veh GSTM3 (11746129_a_at) / RFU IL23R (11737362_x_at) / Fold change /veh IL23R (11737362_x_at) / RFU TMEM51 (11727254_a_at) / Fold change /veh TMEM51 (11727254_a_at) / RFU PIWIL2 (11732686_x_at) / Fold change /veh PIWIL2 (11732686_x_at) / RFU ORM1 (11744905_x_at) / Fold change /veh ORM1 (11744905_x_at) / RFU CCDC152 (11743942_at) / Fold change /veh CCDC152 (11743942_at) / RFU ECM1 (11717891_a_at) / Fold change /veh ECM1 (11717891_a_at) / RFU IL23R (11748794_a_at) / Fold change /veh IL23R (11748794_a_at) / RFU TNFAIP8L3 (11732012_x_at) / Fold change /veh TNFAIP8L3 (11732012_x_at) / RFU MBOAT4 (11741988_at) / Fold change /veh MBOAT4 (11741988_at) / RFU 11764193_at / Fold change /veh 11764193_at / RFU TMEM53 (11763286_at) / Fold change /veh TMEM53 (11763286_at) / RFU MAGEB2 (11727129_at) / Fold change /veh MAGEB2 (11727129_at) / RFU TMEM200A (11744735_a_at) / Fold change /veh TMEM200A (11744735_a_at) / RFU CCDC152 (11751479_a_at) / Fold change /veh CCDC152 (11751479_a_at) / RFU FAM211A (11726209_a_at) / Fold change /veh FAM211A (11726209_a_at) / RFU RGS16 (11746705_a_at) / Fold change /veh RGS16 (11746705_a_at) / RFU VCAN (11755009_s_at) / Fold change /veh VCAN (11755009_s_at) / RFU RHOB (11743442_s_at) / Fold change /veh RHOB (11743442_s_at) / RFU RGS16 (11720943_a_at) / Fold change /veh RGS16 (11720943_a_at) / RFU RGS16 (11720944_at) / Fold change /veh RGS16 (11720944_at) / RFU, VPS4B / Fold change vs veh, VPS4B / RFU, CREB1 / Fold change vs veh, CREB1 / RFU, DNAJC13 / Fold change vs veh, DNAJC13 / RFU, GNAQ / Fold change vs veh, GNAQ / RFU, CDK5R1 / Fold change vs veh, CDK5R1 / RFU, ZRANB3 / Fold change vs veh, ZRANB3 / RFU, CUL4A / Fold change vs veh, CUL4A / RFU, CCNY / Fold change vs veh, CCNY / RFU, UFL1 / Fold change vs veh, UFL1 / RFU, COG3 / Fold change vs veh, COG3 / RFU, DIAPH2 / Fold change vs veh, DIAPH2 / RFU, SKA2 / Fold change vs veh, SKA2 / RFU, AFF3 / Fold change vs veh, AFF3 / RFU, LMF1 / Fold change vs veh, LMF1 / RFU, IPO11 / Fold change vs veh, IPO11 / RFU, DFFB / Fold change vs veh, DFFB / RFU, FOXP1 / Fold change vs veh, FOXP1 / RFU, CARD8 / Fold change vs veh, CARD8 / RFU, STRN3 / Fold change vs veh, STRN3 / RFU, ADK / Fold change vs veh, ADK / RFU, RASSF2 / Fold change vs veh, RASSF2 / RFU, WIPF1 / Fold change vs veh, WIPF1 / RFU, LARP1B / Fold change vs veh, LARP1B / RFU, RASA1 / Fold change vs veh, RASA1 / RFU, RB1 / Fold change vs veh, RB1 / RFU, PPFIA1 / Fold change vs veh, PPFIA1 / RFU, MAT2A / Fold change vs veh, MAT2A / RFU, CCT5 / Fold change vs veh, CCT5 / RFU, WDR92 / Fold change vs veh, WDR92 / RFU, CUX1 / Fold change vs veh, CUX1 / RFU, TTC7A / Fold change vs veh, TTC7A / RFU, TMEM135 / Fold change vs veh, TMEM135 / RFU, DEPTOR / Fold change vs veh, DEPTOR / RFU, CPM / Fold change vs veh, CPM / RFU, DNAJB6 / Fold change vs veh, DNAJB6 / RFU, CACNA2D3 / Fold change vs veh, CACNA2D3 / RFU, DTX4 / Fold change vs veh, DTX4 / RFU, TFCP2 / Fold change vs veh, TFCP2 / RFU, GMCL1 /// GMCL1P1 / Fold change vs veh, GMCL1 /// GMCL1P1 / RFU, AEBP2 / Fold change vs veh, AEBP2 / RFU, SNHG1 /// SNORD22 /// SNORD25 /// SNORD26 /// SNORD27 /// SNORD28 /// SNORD29 /// SNORD31 / Fold change vs veh, SNHG1 /// SNORD22 /// SNORD25 /// SNORD26 /// SNORD27 /// SNORD28 /// SNORD29 /// SNORD31 / Fold change (Aza/veh), C12orf56 (ProbeSet 11735607_a_at) / Fold change (ACY-1035/veh), C12orf56 (ProbeSet 11735607_a_at) / Fold change (Aza/veh), FGFR1OP (ProbeSet 11751329_s_at) / Fold change (ACY-1035/veh), FGFR1OP (ProbeSet 11751329_s_at) / Fold change (Aza/veh), VPS36 (ProbeSet 11739960_a_at) / Fold change (ACY-1035/veh), VPS36 (ProbeSet 11739960_a_at) / RFU SYPL1 (11715823_x_at) / Fold change /veh SYPL1 (11715823_x_at) / RFU IGFBP7 (11715501_s_at) / Fold change /veh IGFBP7 (11715501_s_at) / RFU REEP3 (11722064_at) / Fold change /veh REEP3 (11722064_at) / RFU IGLL1 (11728026_x_at) / Fold change /veh IGLL1 (11728026_x_at): dose or concentration left out as unconfirmed
# Details: ProbeSet 11718701_a_at; LIST B
structure (smiles),measurement,value
Nc1ccc(-c2cccs2)cc1NC(=O)c1ccc2c(c1)cc(C1CC1)n2CCN1CCOCC1 [ACY-1035],"Fold change vs veh, ARFIP1",0.86
